Results taken from ChEMBL document CHEMBL5620370, “1,3-Thiazole derivatives as privileged structures for anti-Trypanosoma cruzi activity: Rational design, synthesis, in silico and in vitro studies” (Eur J Med Chem, 2023).
Active and inactive are the calls of the source. The calls are words filed in the database; no cut-off is given here.

What was measured:
Trypanosoma cruzi [1] = assay: Antitrypanosomal activity against Trypanosoma cruzi Y strain trypomastigotes transfected in African green monkey Vero cells assessed as inhibition of parasite growth incubated for 24 hrs by Neubauer chamber based analysis; type: functional, organism-based
[2] = Cytotoxicity against mouse RAW264.7 cells assessed as inhibition of cell growth incubated for 72 hrs by MTT assay; type: toxicity, cell-based
[3] = Selectivity index, ratio of CC50 for cytotoxicity against mouse RAW264.7 cells to IC50 for antitrypanosomal activity against Trypanosoma cruzi Tulahuen amastigotes transfected in L929 cells assessed as inhibition of parasite growth; type: toxicity, cell-based; settings: read-out: Ratio CC50/IC50
[4] = Selectivity index, ratio of CC50 for cytotoxicity against mouse RAW264.7 cells to IC50 for antitrypanosomal activity against Trypanosoma cruzi Y strain trypomastigotes transfected in African green monkey Vero cells assessed as inhibition of parasite growth; type: toxicity, cell-based; settings: read-out: Ratio CC50/IC50
Trypanosoma cruzi [5] = assay: Antitrypanosomal activity against Trypanosoma cruzi Dm28 epimastigotes assessed as inhibition of parasite growth incubated for 96 hrs by Neubauer chamber based analysis; type: functional, organism-based; settings: Dm28, 96 h
Trypanosoma cruzi [6] = assay: Antitrypanosomal activity against Trypanosoma cruzi Tulahuen amastigotes transfected in L929 cells assessed as inhibition of parasite growth incubated for 96 hrs by CPRG based spectrophotometric analysis; type: functional, organism-based; settings: L929, 96 h
[7] = Selectivity index, ratio of CC50 for cytotoxicity against mouse RAW264.7 cells to IC50 for antitrypanosomal activity against Trypanosoma cruzi Dm28 epimastigotes assessed as inhibition of parasite growth; type: toxicity, cell-based; settings: read-out: Ratio CC50/IC50
Trypanosoma cruzi [8] = assay: Induction of apoptosis in Trypanosoma cruzi Y strain trypomastigotes assessed as late apoptosis at 131.92 uM incubated for 24 hrs by Annexin V-FITC/7AAD staining based flow cytometry; type: functional, organism-based
Trypanosoma cruzi [9] = assay: Induction of apoptosis in Trypanosoma cruzi Y strain trypomastigotes assessed as early apoptosis at 2 times IC50 incubated for 24 hrs by Annexin V-FITC/7AAD staining based flow cytometry; type: functional, organism-based
Trypanosoma cruzi [10] = assay: Induction of DNA damage in Trypanosoma cruzi Y strain trypomastigotes at 1 times IC50 incubated for 24 hrs by acridine orange staining based flow cytometry; type: functional, organism-based
Trypanosoma cruzi [11] = assay: Induction of mitochondrial membrane potential loss in Trypanosoma cruzi Y strain trypomastigotes at 1 times IC50 incubated for 24 hrs by Rhodamine 123 staining based flow cytometry; type: organism-based
Trypanosoma cruzi [12] = assay: Induction of apoptosis in Trypanosoma cruzi Y strain trypomastigotes assessed as early apoptosis at 1 times IC50 incubated for 24 hrs by Annexin V-FITC/7AAD staining based flow cytometry; type: functional, organism-based
Trypanosoma cruzi [13] = assay: Induction of apoptosis in Trypanosoma cruzi Y strain trypomastigotes assessed as necrosis at 1 times IC50 incubated for 24 hrs by Annexin V-FITC/7AAD staining based flow cytometry; type: functional, organism-based
Trypanosoma cruzi [14] = assay: Induction of DNA damage in Trypanosoma cruzi Y strain trypomastigotes at 2 times IC50 incubated for 24 hrs by acridine orange staining based flow cytometry; type: functional, organism-based
Trypanosoma cruzi [15] = assay: Induction of apoptosis in Trypanosoma cruzi Y strain trypomastigotes assessed as necrosis at 131.92 uM incubated for 24 hrs by Annexin V-FITC/7AAD staining based flow cytometry; type: functional, organism-based
Trypanosoma cruzi [16] = assay: Induction of apoptosis in Trypanosoma cruzi Y strain trypomastigotes assessed as late apoptosis at 1 times IC50 incubated for 24 hrs by Annexin V-FITC/7AAD staining based flow cytometry; type: functional, organism-based
Trypanosoma cruzi [17] = assay: Induction of mitochondrial membrane potential loss in Trypanosoma cruzi Y strain trypomastigotes at 2 times IC50 incubated for 24 hrs by Rhodamine 123 staining based flow cytometry; type: organism-based
Trypanosoma cruzi [18] = assay: Induction of apoptosis in Trypanosoma cruzi Y strain trypomastigotes assessed as fold increase in late apoptosis incubated for 24 hrs by Annexin V-FITC/7AAD staining based flow cytometry; type: functional
Trypanosoma cruzi [19] = assay: Induction of apoptosis in Trypanosoma cruzi Y strain trypomastigotes assessed as late apoptosis at 9.64 uM incubated for 24 hrs by Annexin V-FITC/7AAD staining based flow cytometry; type: functional, organism-based
Trypanosoma cruzi [20] = assay: Induction of apoptosis in Trypanosoma cruzi Y strain trypomastigotes assessed as fold increase in early apoptosis incubated for 24 hrs by Annexin V-FITC/7AAD staining based flow cytometry; type: functional
Trypanosoma cruzi [21] = assay: Induction of apoptosis in Trypanosoma cruzi Y strain trypomastigotes assessed as necrosis at 9.64 uM incubated for 24 hrs by Annexin V-FITC/7AAD staining based flow cytometry; type: functional, organism-based
Trypanosoma cruzi [22] = assay: Induction of apoptosis in Trypanosoma cruzi Y strain trypomastigotes assessed as necrosis at 50.9 uM incubated for 24 hrs by Annexin V-FITC/7AAD staining based flow cytometry; type: functional, organism-based
Trypanosoma cruzi [23] = assay: Induction of apoptosis in Trypanosoma cruzi Y strain trypomastigotes assessed as late apoptosis at 50.9 uM incubated for 24 hrs by Annexin V-FITC/7AAD staining based flow cytometry; type: functional, organism-based

C/C(=N\Nc1nc(-c2ccccc2)cs1)c1ccc(Cl)cc1Cl
IC50 (Trypanosoma cruzi [1]): 45.9 µM
CC50 at 72 h [2]: 42.8 µM
selectivity ratio [3]: 2
selectivity ratio [4]: 0.93
IC50 (Trypanosoma cruzi [5]): 7.42 µM
IC50 (Trypanosoma cruzi [6]): 21.3 µM
selectivity ratio [7]: 5.76

O=C(Cn1ccnc1[N+](=O)[O-])NCc1ccccc1 [BENZNIDAZOLE]
IC50 (Trypanosoma cruzi [1]): 41 µM
CC50 at 72 h [2]: 44.2 µM
selectivity ratio [3]: 7.83
selectivity ratio [4]: 1.07
IC50 (Trypanosoma cruzi [5]): 56.9 µM
IC50 (Trypanosoma cruzi [6]): 5.64 µM
selectivity ratio [7]: 0.77

C/C(=N\Nc1nc(-c2ccc3ccccc3c2)cs1)c1ccc(Cl)c(Cl)c1Cl
Activity (Trypanosoma cruzi [8]): Active
Activity (Trypanosoma cruzi [9]): Active
Activity (Trypanosoma cruzi [10]): inactive
IC50 (Trypanosoma cruzi [1]): 66 µM
Activity (Trypanosoma cruzi [11]): inactive
CC50 at 72 h [2]: 96.2 µM
selectivity ratio [3]: 3.79
Activity (Trypanosoma cruzi [12]): Active
Activity (Trypanosoma cruzi [13]): Active
Activity (Trypanosoma cruzi [14]): inactive
selectivity ratio [4]: 1.45
Activity (Trypanosoma cruzi [15]): Active
IC50 (Trypanosoma cruzi [5]): 10.9 µM
IC50 (Trypanosoma cruzi [6]): 25.4 µM
Activity (Trypanosoma cruzi [16]): Active
selectivity ratio [7]: 8.86
Activity (Trypanosoma cruzi [17]): inactive

C/C(=N\Nc1nc(-c2ccc(-c3ccccc3)cc2)cs1)c1ccc(Cl)c(Cl)c1Cl
IC50 (Trypanosoma cruzi [1]): 2.64 µM
CC50 at 72 h [2]: 62.2 µM
selectivity ratio [3]: 4.83
selectivity ratio [4]: 23.6
IC50 (Trypanosoma cruzi [5]): 8.62 µM
IC50 (Trypanosoma cruzi [6]): 12.9 µM
selectivity ratio [7]: 7.22

C/C(=N\Nc1nc(-c2ccc([N+](=O)[O-])cc2)cs1)c1ccc(Cl)c(Cl)c1Cl
CC50 at 72 h [2]: 88.5 µM
selectivity ratio [3]: 1.95
IC50 (Trypanosoma cruzi [5]): 28.9 µM
IC50 (Trypanosoma cruzi [6]): 45.3 µM
selectivity ratio [7]: 3.05

C/C(=N\Nc1nc(-c2cccc([N+](=O)[O-])c2)cs1)c1ccc(Cl)c(Cl)c1Cl
CC50 at 72 h [2]: 29.2 µM
selectivity ratio [3]: 6.55
IC50 (Trypanosoma cruzi [5]): 8.42 µM
IC50 (Trypanosoma cruzi [6]): 4.46 µM
selectivity ratio [7]: 3.47

C/C(=N\Nc1nc(-c2ccc(-c3ccccc3)cc2)cs1)c1ccc(Cl)cc1Cl
IC50 (Trypanosoma cruzi [1]): 10.6 µM
CC50 at 72 h [2]: 80.1 µM
selectivity ratio [3]: 5.38
selectivity ratio [4]: 7.58
IC50 (Trypanosoma cruzi [5]): 20.2 µM
IC50 (Trypanosoma cruzi [6]): 14.9 µM
selectivity ratio [7]: 3.96

C/C(=N\Nc1nc(-c2ccc(Cl)cc2)cs1)c1ccc(Cl)c(Cl)c1Cl
IC50 (Trypanosoma cruzi [1]): 3.27 µM
CC50 at 72 h [2]: 39.6 µM
selectivity ratio [3]: 4.55
selectivity ratio [4]: 12.1
IC50 (Trypanosoma cruzi [5]): 10.6 µM
IC50 (Trypanosoma cruzi [6]): 8.71 µM
selectivity ratio [7]: 3.73

C/C(=N\Nc1nc(-c2ccc(Cl)c(Cl)c2)cs1)c1ccc(Cl)cc1Cl
Activity (Trypanosoma cruzi [9]): Active
IC50 (Trypanosoma cruzi [1]): 4.82 µM
Activity (Trypanosoma cruzi [11]): inactive
CC50 at 72 h [2]: 97.3 µM
selectivity ratio [3]: 3.44
fold change (FC) (Trypanosoma cruzi [18]): 4
Activity (Trypanosoma cruzi [12]): Active
Activity (Trypanosoma cruzi [13]): Active
Activity (Trypanosoma cruzi [14]): Active
selectivity ratio [4]: 20.2
Activity (Trypanosoma cruzi [19]): Active
fold change (FC) (Trypanosoma cruzi [20]): 5
IC50 (Trypanosoma cruzi [5]): 6.41 µM
IC50 (Trypanosoma cruzi [6]): 28.3 µM
Activity (Trypanosoma cruzi [16]): Active
selectivity ratio [7]: 15.2
Activity (Trypanosoma cruzi [21]): Active
Activity (Trypanosoma cruzi [17]): inactive

C/C(=N\Nc1nc(-c2ccc(Br)cc2)cs1)c1ccc(Cl)c(Cl)c1Cl
CC50 at 72 h [2]: 29.9 µM
selectivity ratio [3]: 5
IC50 (Trypanosoma cruzi [5]): 5.25 µM
IC50 (Trypanosoma cruzi [6]): 5.96 µM
selectivity ratio [7]: 5.68

COc1ccc(-c2csc(N/N=C(\C)c3ccc(Cl)cc3Cl)n2)cc1
Activity (Trypanosoma cruzi [9]): Active
Activity (Trypanosoma cruzi [10]): inactive
IC50 (Trypanosoma cruzi [1]): 45.3 µM
Activity (Trypanosoma cruzi [11]): Active
CC50 at 72 h [2]: 43.1 µM
selectivity ratio [3]: 11.8
Activity (Trypanosoma cruzi [12]): Active
Activity (Trypanosoma cruzi [13]): Active
Activity (Trypanosoma cruzi [14]): inactive
selectivity ratio [4]: 0.95
IC50 (Trypanosoma cruzi [5]): 3.48 µM
IC50 (Trypanosoma cruzi [6]): 3.65 µM
Activity (Trypanosoma cruzi [16]): Active
selectivity ratio [7]: 12.4
Activity (Trypanosoma cruzi [17]): Active

C/C(=N\Nc1nc(-c2ccccc2)cs1)c1ccc(Cl)c(Cl)c1Cl
IC50 (Trypanosoma cruzi [1]): 11.5 µM
CC50 at 72 h [2]: 30.2 µM
selectivity ratio [3]: 1.46
selectivity ratio [4]: 2.61
IC50 (Trypanosoma cruzi [5]): 13.8 µM
IC50 (Trypanosoma cruzi [6]): 20.6 µM
selectivity ratio [7]: 2.18

C/C(=N\Nc1nc(-c2ccc(Cl)cc2Cl)cs1)c1ccc(Cl)c(Cl)c1Cl
IC50 (Trypanosoma cruzi [1]): 4.08 µM
CC50 at 72 h [2]: 36.3 µM
selectivity ratio [3]: 2.67
selectivity ratio [4]: 8.89
IC50 (Trypanosoma cruzi [5]): 8.33 µM
IC50 (Trypanosoma cruzi [6]): 13.6 µM
selectivity ratio [7]: 4.35

C/C(=N\Nc1nc(-c2ccc(Cl)c(Cl)c2)cs1)c1ccc(Cl)c(Cl)c1Cl
Activity (Trypanosoma cruzi [9]): Active
Activity (Trypanosoma cruzi [10]): inactive
IC50 (Trypanosoma cruzi [1]): 25.4 µM
Activity (Trypanosoma cruzi [11]): Active
CC50 at 72 h [2]: 44.9 µM
selectivity ratio [3]: 1.76
Activity (Trypanosoma cruzi [22]): Active
Activity (Trypanosoma cruzi [12]): Active
Activity (Trypanosoma cruzi [13]): Active
Activity (Trypanosoma cruzi [14]): inactive
Activity (Trypanosoma cruzi [23]): Active
selectivity ratio [4]: 1.76
IC50 (Trypanosoma cruzi [5]): 32.1 µM
IC50 (Trypanosoma cruzi [6]): 25.4 µM
Activity (Trypanosoma cruzi [16]): Active
selectivity ratio [7]: 1.39
Activity (Trypanosoma cruzi [17]): Active

C/C(=N\Nc1nc(-c2ccc(Cl)cc2)cs1)c1ccc(Cl)cc1Cl
IC50 (Trypanosoma cruzi [1]): 17.9 µM
CC50 at 72 h [2]: 55.1 µM
selectivity ratio [3]: 5.21
selectivity ratio [4]: 3.07
IC50 (Trypanosoma cruzi [5]): 7.55 µM
IC50 (Trypanosoma cruzi [6]): 10.6 µM
selectivity ratio [7]: 7.3

C/C(=N\Nc1nc(-c2ccc(F)cc2)cs1)c1ccc(Cl)c(Cl)c1Cl
Activity (Trypanosoma cruzi [9]): Active
Activity (Trypanosoma cruzi [10]): Active
IC50 (Trypanosoma cruzi [1]): 21.5 µM
Activity (Trypanosoma cruzi [11]): inactive
CC50 at 72 h [2]: 42.2 µM
selectivity ratio [3]: 1.51
Activity (Trypanosoma cruzi [12]): Active
Activity (Trypanosoma cruzi [13]): Active
Activity (Trypanosoma cruzi [14]): Active
selectivity ratio [4]: 1.96
IC50 (Trypanosoma cruzi [5]): 19.4 µM
IC50 (Trypanosoma cruzi [6]): 27.9 µM
Activity (Trypanosoma cruzi [16]): Active
selectivity ratio [7]: 2.17
Activity (Trypanosoma cruzi [17]): inactive

COc1ccc(-c2csc(N/N=C(\C)c3ccc(Cl)c(Cl)c3Cl)n2)cc1
IC50 (Trypanosoma cruzi [1]): 30.9 µM
CC50 at 72 h [2]: 27.1 µM
selectivity ratio [3]: 3.45
selectivity ratio [4]: 0.87
IC50 (Trypanosoma cruzi [5]): 7.88 µM
IC50 (Trypanosoma cruzi [6]): 7.84 µM
selectivity ratio [7]: 3.43

C/C(=N\NC1NC(=O)CS1)c1ccc(Cl)cc1Cl (stereo unspecified)
IC50 (Trypanosoma cruzi [1]): 1.12 µM
